Values after ≈ are worked out from the molar mass of the structure shown.
Tested on: up to 32 different microorganisms
Assay: in vitro antibacterial activity (MIC), agar dilution on Brain Heart Infusion (BHI) agar with Steers replicator
Assay type: cell-based
Settings: unit assumed
Procedure, shortened: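 Agar dilution MIC: twelve successive compound dilutions in BHI agar, spot-inoculated with 1:100 (1:10 for slow growers) organism dilutions by Steers replicator, incubated 35-37° C for 20-24 h. MIC is lowest concentration showing no growth, slight haze or sparse colonies versus drug-free control; erythromycin A as class reference.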

## CCC1OC(=O)C(C)C(=O)C(C)C(OC2OC(C)CC(N(C)C)C2O)C(C)(OCC=Cc2ccc3cc(O)ccc3c2)CC(C)C(=O)C(C)C2NC(=O)OC12C (stereo not drawn) [Example 287, Compound of Formula (IX): L is CO, T is NH2, R is —CH2CH═CH-(6-hydroxy-2-naphthyl)]
Organism code AA
  MIC: 0.1 µg/mL
Organism code BB
  MIC: 0.1 µg/mL
Organism code CC
  MIC: > 100 µg/mL
Organism code DD
  MIC: 0.1 µg/mL
Organism code EE
  MIC: 0.1 µg/mL
Organism code FF
  MIC: 0.02 µg/mL
Organism code GG
  MIC: > 100 µg/mL
Organism code HH
  MIC: 0.1 µg/mL
Organism code II
  MIC: 0.05 µg/mL
Organism code JJ
  MIC: 0.02 µg/mL
Organism code KK
  MIC: 0.02 µg/mL
Organism code LL
  MIC: 0.02 µg/mL
Organism code MM
  MIC: 3.1 µg/mL
Organism code NN
  MIC: 0.1 µg/mL
Organism code OO
  MIC: 0.02 µg/mL
Organism code PP
  MIC: 0.2 µg/mL
Organism code QQ
  MIC: 50 µg/mL
Organism code RR
  MIC: 0.39 µg/mL
Organism code SS
  MIC: > 100 µg/mL
Organism code TT
  MIC: > 100 µg/mL
Organism code UU
  MIC: 0.39 µg/mL
Organism code VV
  MIC: 0.05 µg/mL
Organism code WW
  MIC: 2 µg/mL
Organism code XX
  MIC: 0.03 µg/mL
Organism code YY
  MIC: 0.03 µg/mL
Organism code ZZ
  MIC: 4 µg/mL
Organism code ZZA
  MIC: 0.5 µg/mL

## C=CCO[C@@]1(C)C[C@@H](C)C(=O)[C@H](C)[C@H]2N(N)C(=O)O[C@]2(C)[C@@H](CC)OC(=O)[C@H](C)C(=O)[C@H](C)[C@H]1O[C@@H]1O[C@H](C)C[C@H](N(C)C)[C@H]1O [Example 262, Compound of Formula (IX): L is CO, T is N(NH2), R is —CH CH═CH2]
Organism code AA
  MIC: 0.78 µg/mL
Organism code BB
  MIC: 0.78 µg/mL
Organism code CC
  MIC: > 100 µg/mL
Organism code DD
  MIC: 0.78 µg/mL
Organism code EE
  MIC: 0.78 µg/mL
Organism code FF
  MIC: 0.78 µg/mL
Organism code GG
  MIC: > 100 µg/mL
Organism code HH
  MIC: 0.78 µg/mL
Organism code II
  MIC: 0.39 µg/mL
Organism code JJ
  MIC: ≤ 0.005 µg/mL
Organism code KK
  MIC: 0.05 µg/mL
Organism code LL
  MIC: 0.1 µg/mL
Organism code MM
  MIC: > 100 µg/mL
Organism code NN
  MIC: 0.78 µg/mL
Organism code OO
  MIC: 0.1 µg/mL
Organism code PP
  MIC: 0.39 µg/mL
Organism code QQ
  MIC: > 100 µg/mL
Organism code RR
  MIC: 1.56 µg/mL
Organism code SS
  MIC: > 100 µg/mL
Organism code TT
  MIC: > 100 µg/mL
Organism code UU
  MIC: 6.2 µg/mL
Organism code VV
  MIC: 0.39 µg/mL
Organism code WW
  MIC: 16 µg/mL
Organism code XX
  MIC: 0.03 µg/mL
Organism code YY
  MIC: 0.03 µg/mL
Organism code ZZ
  MIC: > 128 µg/mL
Organism code ZZA
  MIC: 0.5 µg/mL

## CC[C@H]1OC(=O)[C@H](C)C(=O)[C@H](C)[C@@H](O[C@@H]2O[C@H](C)C[C@H](N(C)C)[C@H]2O)[C@@](C)(OCC2COC(C)(C)O2)C[C@@H](C)C(=O)[C@H](C)[C@H]2NC(=O)O[C@@]21C (stereo partly drawn) [Example 259, Compound of Formula (IX): L is CO, T is NH, R is —CH2-(2,2-dimethyl-1,3-dioxolan-4-yl)]
Organism code AA
  MIC: 6.2 µg/mL
Organism code BB
  MIC: 6.2 µg/mL
Organism code CC
  MIC: > 100 µg/mL
Organism code DD
  MIC: 12.5 µg/mL
Organism code EE
  MIC: 6.2 µg/mL
Organism code FF
  MIC: 6.2 µg/mL
Organism code GG
  MIC: > 100 µg/mL
Organism code HH
  MIC: 6.2 µg/mL
Organism code II
  MIC: 0.78 µg/mL
Organism code JJ
  MIC: 0.39 µg/mL
Organism code KK
  MIC: 0.78 µg/mL
Organism code LL
  MIC: 0.39 µg/mL
Organism code MM
  MIC: > 100 µg/mL
Organism code NN
  MIC: 1.56 µg/mL
Organism code OO
  MIC: 0.78 µg/mL
Organism code PP
  MIC: 1.56 µg/mL
Organism code QQ
  MIC: > 100 µg/mL
Organism code RR
  MIC: 1.56 µg/mL
Organism code SS
  MIC: > 100 µg/mL
Organism code TT
  MIC: > 100 µg/mL
Organism code UU
  MIC: 12.5 µg/mL
Organism code VV
  MIC: 3.1 µg/mL
Organism code WW
  MIC: 128 µg/mL
Organism code XX
  MIC: 1 µg/mL
Organism code YY
  MIC: 1 µg/mL
Organism code ZZ
  MIC: > 128 µg/mL
Organism code ZZA
  MIC: 4 µg/mL

## CCC1OC(=O)C(C)C(=O)C(C)C(OC2OC(C)CC(N(C)C)C2O)C(C)(OCC=Cc2ccc3c(c2)OCO3)CC(C)C(=O)C(C)C2NC(=O)OC12C (stereo not drawn) [Example 188, R is —CH2CH═CH-(3,4-methylenedioxyphenyl)]
Candida albicans CCH 442 (code TT)
  MIC: > 100 µg/mL
Enterococcus faecism ATCC 8043 (code II)
  MIC: 0.05 µg/mL (≈ 0.0659 µM)
Escherichia coli DC-2 (code SS)
  MIC: > 100 µg/mL
Escherichia coli JUHL (code QQ)
  MIC: > 100 µg/mL
Escherichia coli SS (code RR)
  MIC: 0.78 µg/mL (≈ 1.03 µM)
Haemophilis influenzae DILL AMP R (code WW)
  MIC: 8 µg/mL (≈ 10.5 µM)
Micrococcus luteus ATCC 4698 (code PP)
  MIC: 0.2 µg/mL (≈ 0.264 µM)
Micrococcus luteus ATCC 9341 (code OO)
  MIC: 0.02 µg/mL (≈ 0.0264 µM)
Mycobacterium smegmatis ATCC 114 (code UU)
  MIC: 0.78 µg/mL (≈ 1.03 µM)
Nocardia Asteroides ATCC9970 (code VV)
  MIC: 0.39 µg/mL (≈ 0.514 µM)
Staphylococcus aureus 1775 (code GG)
  MIC: > 100 µg/mL
Staphylococcus aureus A5177 (code BB)
  MIC: 0.1 µg/mL (≈ 0.132 µM)
Staphylococcus aureus A-5278 (code CC)
  MIC: > 100 µg/mL
Staphylococcus aureus ATCC 6538P (code AA)
  MIC: 0.1 µg/mL (≈ 0.132 µM)
Staphylococcus aureus CMX 553 (code FF)
  MIC: 0.1 µg/mL (≈ 0.132 µM)
Staphylococcus aureus CMX 642A (code DD)
  MIC: 0.1 µg/mL (≈ 0.132 µM)
Staphylococcus aureus NCTC10649M (code EE)
  MIC: 0.2 µg/mL (≈ 0.264 µM)
Staphylococcus epidermidis 3519 (code HH)
  MIC: 0.2 µg/mL (≈ 0.264 µM)
Streptococcus Pneumonia 5649 (code ZZA)
  MIC: 1 µg/mL (≈ 1.32 µM)
Streptococcus Pneumonia 5979 (code ZZ)
  MIC: > 64 µg/mL
Streptococcus Pneumonia ATCC6303 (code XX)
  MIC: 0.03 µg/mL (≈ 0.0395 µM)
Streptococcus Pneumonia GYR 1171 (code YY)
  MIC: 0.03 µg/mL (≈ 0.0395 µM)
Streptococcus agalactiae CMX 508 (code KK)
  MIC: ≤ 0.005 µg/mL
Streptococcus bovis A-5169 (code JJ)
  MIC: ≤ 0.005 µg/mL
Streptococcus pyogenes 930 (code MM)
  MIC: 25 µg/mL (≈ 32.9 µM)
Streptococcus pyogenes EES61 (code LL)
  MIC: 0.01 µg/mL (≈ 0.0132 µM)
Streptococcus pyogenes PIU 2548 (code NN)
  MIC: 0.1 µg/mL (≈ 0.132 µM)

## CCC1OC(=O)C(C)C(=O)C(C)C(OC2OC(C)CC(N(C)C)C2O)C(C)(OCC=Cc2cnc3ccc(NC(C)=O)cc3c2)CC(C)C(=O)C(C)C2NC(=O)OC12C (stereo not drawn) [Example 203]
Organism code AA
  MIC: 0.2 µg/mL (≈ 0.243 µM)
Organism code BB
  MIC: 0.39 µg/mL (≈ 0.474 µM)
Organism code CC
  MIC: > 100 µg/mL
Organism code DD
  MIC: 0.2 µg/mL (≈ 0.243 µM)
Organism code EE
  MIC: 0.2 µg/mL (≈ 0.243 µM)
Organism code FF
  MIC: 0.39 µg/mL (≈ 0.474 µM)
Organism code GG
  MIC: > 100 µg/mL
Organism code HH
  MIC: 0.2 µg/mL (≈ 0.243 µM)
Organism code II
  MIC: 0.2 µg/mL (≈ 0.243 µM)
Organism code JJ
  MIC: ≤ 0.005 µg/mL
Organism code KK
  MIC: 0.01 µg/mL (≈ 0.0122 µM)
Organism code LL
  MIC: 0.01 µg/mL (≈ 0.0122 µM)
Organism code MM
  MIC: 1.56 µg/mL (≈ 1.9 µM)
Organism code NN
  MIC: 0.39 µg/mL (≈ 0.474 µM)
Organism code OO
  MIC: 0.02 µg/mL (≈ 0.0243 µM)
Organism code PP
  MIC: 0.39 µg/mL (≈ 0.474 µM)
Organism code QQ
  MIC: 100 µg/mL (≈ 122 µM)
Organism code RR
  MIC: 0.39 µg/mL (≈ 0.474 µM)
Organism code SS
  MIC: 100 µg/mL (≈ 122 µM)
Organism code TT
  MIC: > 100 µg/mL
Organism code UU
  MIC: 6.2 µg/mL (≈ 7.53 µM)
Organism code VV
  MIC: 0.39 µg/mL (≈ 0.474 µM)
Organism code WW
  MIC: 4 µg/mL (≈ 4.86 µM)
Organism code XX
  MIC: 0.03 µg/mL (≈ 0.0365 µM)
Organism code YY
  MIC: 0.03 µg/mL (≈ 0.0365 µM)
Organism code ZZ
  MIC: 16 µg/mL (≈ 19.4 µM)
Organism code ZZA
  MIC: 2 µg/mL (≈ 2.43 µM)

## CCC1OC(=O)C(C)C(=O)C(C)C(OC2OC(C)CC(N(C)C)C2O)C(C)(OCC(O)c2ccccc2)CC(C)C(=O)C(C)C2NC(=O)OC12C (single isomer, unassigned) [Example 261A]
Organism code AA
  MIC: 6.2 µg/mL (≈ 8.62 µM)
Organism code BB
  MIC: 6.2 µg/mL (≈ 8.62 µM)
Organism code CC
  MIC: > 100 µg/mL
Organism code DD
  MIC: 12.5 µg/mL (≈ 17.4 µM)
Organism code EE
  MIC: 12.5 µg/mL (≈ 17.4 µM)
Organism code FF
  MIC: 12.5 µg/mL (≈ 17.4 µM)
Organism code GG
  MIC: > 100 µg/mL
Organism code HH
  MIC: 6.2 µg/mL (≈ 8.62 µM)
Organism code II
  MIC: 1.56 µg/mL (≈ 2.17 µM)
Organism code JJ
  MIC: 0.39 µg/mL (≈ 0.543 µM)
Organism code KK
  MIC: 0.39 µg/mL (≈ 0.543 µM)
Organism code LL
  MIC: 0.39 µg/mL (≈ 0.543 µM)
Organism code MM
  MIC: > 100 µg/mL
Organism code NN
  MIC: 1.56 µg/mL (≈ 2.17 µM)
Organism code OO
  MIC: 0.78 µg/mL (≈ 1.09 µM)
Organism code PP
  MIC: 3.1 µg/mL (≈ 4.31 µM)
Organism code QQ
  MIC: > 100 µg/mL
Organism code RR
  MIC: 6.2 µg/mL (≈ 8.62 µM)
Organism code SS
  MIC: > 100 µg/mL
Organism code TT
  MIC: > 100 µg/mL
Organism code UU
  MIC: 25 µg/mL (≈ 34.8 µM)
Organism code VV
  MIC: 6.2 µg/mL (≈ 8.62 µM)
Organism code WW
  MIC: 64 µg/mL (≈ 89 µM)
Organism code XX
  MIC: 1 µg/mL (≈ 1.39 µM)
Organism code YY
  MIC: 1 µg/mL (≈ 1.39 µM)
Organism code ZZ
  MIC: > 128 µg/mL
Organism code ZZA
  MIC: 2 µg/mL (≈ 2.78 µM)
